According to ChEMBL document CHEMBL4680312 (Bioorg Med Chem, 2021):
Activity calls are given as the source filed them. The calls are words filed in the database; no cut-off is given here.

Biological target: T1, Histamine H4 receptor (Homo sapiens, UniProt Q9H3N8)
Assay: Displacement of [3H]-Histamine from human histamine 4 receptor transfected in HEK293T cells incubated for 16 hrs by liquid scintillation counter analysis
Assay type: cell-based
Conditions: not given

| SMILES | Ki [µM] |
| --- | --- |
| c1ccc(-c2ccc3c(c2)CC(CN2CCN(c4ccccc4)CC2)O3)cc1 (stereo unspecified) | > 10 |
| O=C(c1cc2ccccc2o1)N1CCN(c2ccccc2)CC1 | > 10 |
| c1ccc(-c2ccc3c(c2)CC(CN2CCNCC2)O3)cc1 (stereo unspecified) | > 10 |
| CN1CCN(C(=O)c2cc3ccccc3o2)CC1 | 0.0794 |
| CN1CCN(Cc2ccc3c(c2)CCO3)CC1 | > 10 |
| C=CCN1CCN(CC2Cc3ccccc3O2)CC1 (stereo unspecified) | > 10 |
| CC(C)(C)c1ccc2c(c1)CC(CN1CCN(c3ccccc3)CC1)O2 (stereo unspecified) | > 10 |
| c1ccc(CN2CCN(CC3Cc4ccccc4O3)CC2)cc1 (stereo unspecified) | > 10 |
| CN1CCN(Cc2cc3ccccc3o2)CC1 | > 10 |
| C=CCN1CCN(CC2Cc3cc(-c4ccccc4)ccc3O2)CC1 (stereo unspecified) | > 10 |

Continued, values first:

| Ki [µM] | SMILES |
| --- | --- |
| > 10 | CN1CCN(CC2Cc3cc(C(C)(C)C)ccc3O2)CC1 (stereo unspecified) |
| > 10 | C=CCN1CCN(CC2Cc3cc(OC)ccc3O2)CC1 (stereo unspecified) |
| 0.794 | CN1CCN(CC2Cc3cc(Cl)ccc3O2)CC1 (stereo unspecified) |
| > 10 | COc1ccc2c(c1)CC(CN1CCN(C)CC1)O2 (stereo unspecified) |
| > 10 | CN1CCN(CC2Cc3cc(-c4ccccc4)ccc3O2)CC1 (stereo unspecified) |
| > 10 | C=CCN1CCN(CC2Cc3cc(C(C)(C)C)ccc3O2)CC1 (stereo unspecified) |

Biological target: T2, Histamine H3 receptor (Homo sapiens, UniProt Q9Y5N1)
T2 sequence (Q9Y5N1 whole entry): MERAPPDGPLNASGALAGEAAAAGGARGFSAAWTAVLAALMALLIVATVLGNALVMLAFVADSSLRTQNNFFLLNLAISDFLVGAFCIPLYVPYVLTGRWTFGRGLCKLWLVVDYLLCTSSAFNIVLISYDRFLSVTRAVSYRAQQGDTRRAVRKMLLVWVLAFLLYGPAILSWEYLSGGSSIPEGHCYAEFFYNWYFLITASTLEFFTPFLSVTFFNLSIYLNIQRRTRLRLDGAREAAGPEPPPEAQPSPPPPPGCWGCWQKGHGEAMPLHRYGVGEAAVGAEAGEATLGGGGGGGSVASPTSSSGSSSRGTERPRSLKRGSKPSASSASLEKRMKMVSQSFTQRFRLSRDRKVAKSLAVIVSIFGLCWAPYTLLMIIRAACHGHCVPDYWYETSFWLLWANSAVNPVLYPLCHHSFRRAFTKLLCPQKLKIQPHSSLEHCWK
Assay: Antagonist activity at human histamine 3 receptor transfected in human HEK293T cells assessed as reduction in histamine-induced activity at 10 uM incubated for 30 mins followed by histamine stimulation and measured immediately by BRET assay
Assay type: cell-based
Conditions: not given

| SMILES | Activity |
| --- | --- |
| c1ccc(-c2ccc3c(c2)CC(CN2CCNCC2)O3)cc1 (stereo unspecified) | inactive |
| CC(C)(C)c1ccc2c(c1)CC(CN1CCN(c3ccccc3)CC1)O2 (stereo unspecified) | inactive |

Same assay, conditions: filed as antagonist

| Activity | SMILES |
| --- | --- |
| Active | C=CCN1CCN(CC2Cc3cc(OC)ccc3O2)CC1 (stereo unspecified) |
| Active | CN1CCN(CC2Cc3cc(-c4ccccc4)ccc3O2)CC1 (stereo unspecified) |
| Active | C=CCN1CCN(CC2Cc3cc(-c4ccccc4)ccc3O2)CC1 (stereo unspecified) |
| Active | C=CCN1CCN(CC2Cc3cc(C(C)(C)C)ccc3O2)CC1 (stereo unspecified) |

Biological target: T2, Histamine H3 receptor
Assay: Displacement of [3H]-Histamine from human histamine 3 receptor transfected in HEK293T cells incubated for 16 hrs by liquid scintillation counter analysis
Assay type: cell-based
Conditions: not given

| SMILES | Ki [µM] |
| --- | --- |
| c1ccc(-c2ccc3c(c2)CC(CN2CCN(c4ccccc4)CC2)O3)cc1 (stereo unspecified) | > 10 |
| O=C(c1cc2ccccc2o1)N1CCN(c2ccccc2)CC1 | > 10 |
| c1ccc(-c2ccc3c(c2)CC(CN2CCNCC2)O3)cc1 (stereo unspecified) | 0.631 |
| CN1CCN(C(=O)c2cc3ccccc3o2)CC1 | > 10 |
| CN1CCN(Cc2ccc3c(c2)CCO3)CC1 | > 10 |
| CC(C)(C)c1ccc2c(c1)CC(CN1CCN(c3ccccc3)CC1)O2 (stereo unspecified) | > 10 |
| c1ccc(CN2CCN(CC3Cc4ccccc4O3)CC2)cc1 (stereo unspecified) | > 10 |
| CN1CCN(Cc2cc3ccccc3o2)CC1 | > 10 |
| C=CCN1CCN(CC2Cc3cc(-c4ccccc4)ccc3O2)CC1 (stereo unspecified) | 0.00398 |

Other lines, results leading:

| Ki [µM] | SMILES |
| --- | --- |
| 0.794 | CN1CCN(CC2Cc3cc(C(C)(C)C)ccc3O2)CC1 (stereo unspecified) |
| 0.00631 | C=CCN1CCN(CC2Cc3cc(OC)ccc3O2)CC1 (stereo unspecified) |
| 0.794 | CN1CCN(CC2Cc3cc(Cl)ccc3O2)CC1 (stereo unspecified) |
| 0.794 | COc1ccc2c(c1)CC(CN1CCN(C)CC1)O2 (stereo unspecified) |
| 0.0398 | CN1CCN(CC2Cc3cc(-c4ccccc4)ccc3O2)CC1 (stereo unspecified) |
| 0.0158 | C=CCN1CCN(CC2Cc3cc(C(C)(C)C)ccc3O2)CC1 (stereo unspecified) |

Biological target: T1, Histamine H4 receptor
Assay: Antagonist activity at human histamine 4 receptor transfected in human HEK293T cells assessed as reduction in histamine-induced activity at 10 uM incubated for 30 mins followed by histamine stimulation and measured immediately by BRET assay
Assay type: cell-based
Conditions: filed as antagonist

| Activity | SMILES |
| --- | --- |
| Active | CN1CCN(C(=O)c2cc3ccccc3o2)CC1 |
| Active | CN1CCN(C(=O)c2nc3ccc(Cl)cc3[nH]2)CC1 |

Biological target: T1, Histamine H4 receptor
Assay: Activation of human histamine 4 receptor transfected in human HEK293T cells measured after 5 mins by BRET assay
Assay type: cell-based
Conditions: filed as partial agonist, dose 0.01-10 µM

| Activity | SMILES |
| --- | --- |
| Dose-dependent effect | CN1CCN(C(=O)c2cc3ccccc3o2)CC1 |

Biological target: T2, Histamine H3 receptor
Assay: Activation of human histamine 3 receptor transfected in human HEK293T cells at 10 uM measured after 5 mins by BRET assay
Assay type: cell-based
Conditions: not given

| SMILES | Activity |
| --- | --- |
| c1ccc(-c2ccc3c(c2)CC(CN2CCNCC2)O3)cc1 (stereo unspecified) | inactive |
| CC(C)(C)c1ccc2c(c1)CC(CN1CCN(c3ccccc3)CC1)O2 (stereo unspecified) | inactive |
| C=CCN1CCN(CC2Cc3cc(-c4ccccc4)ccc3O2)CC1 (stereo unspecified) | inactive |

Further lines, results first:

| Activity | SMILES |
| --- | --- |
| inactive | C=CCN1CCN(CC2Cc3cc(OC)ccc3O2)CC1 (stereo unspecified) |
| inactive | CN1CCN(CC2Cc3cc(-c4ccccc4)ccc3O2)CC1 (stereo unspecified) |
| inactive | C=CCN1CCN(CC2Cc3cc(C(C)(C)C)ccc3O2)CC1 (stereo unspecified) |
